Positions of bridges follow the written chain, without caps; N, C: chain ends. Non-standard residues stand in square brackets, D forms with d. Residues, ends and D or L forms follow the SMILES beside them. S5 = C=CCCC[C@](C)(N)C(=O)O
Tests used:
[1] = Circular dichroism spectroscopy, percent helicity; assay type: physicochemical; details: CD θ220, 10 mM phosphate buffer pH 7.4, 50 μM peptide
pepsin = pepsin (Sus scrofa, UniProt P00791); test: Protease stability assay, pepsin; assay type: in vitro ADME, porcine; details: acidic pH
Sequence of pepsin (P00791 60-385): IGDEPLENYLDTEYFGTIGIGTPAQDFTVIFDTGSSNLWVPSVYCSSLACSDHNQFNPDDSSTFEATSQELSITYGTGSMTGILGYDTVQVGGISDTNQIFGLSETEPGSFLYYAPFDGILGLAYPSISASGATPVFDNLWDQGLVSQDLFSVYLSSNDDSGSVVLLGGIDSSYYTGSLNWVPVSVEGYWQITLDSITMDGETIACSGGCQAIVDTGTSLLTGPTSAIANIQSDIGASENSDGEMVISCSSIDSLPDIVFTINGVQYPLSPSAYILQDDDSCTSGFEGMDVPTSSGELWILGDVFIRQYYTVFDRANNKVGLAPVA

proteinase K = proteinase K (Parengyodontium album, UniProt P06873); test: Protease stability assay, proteinase K; assay type: in vitro ADME, fungal
Sequence of proteinase K (P06873 106-384): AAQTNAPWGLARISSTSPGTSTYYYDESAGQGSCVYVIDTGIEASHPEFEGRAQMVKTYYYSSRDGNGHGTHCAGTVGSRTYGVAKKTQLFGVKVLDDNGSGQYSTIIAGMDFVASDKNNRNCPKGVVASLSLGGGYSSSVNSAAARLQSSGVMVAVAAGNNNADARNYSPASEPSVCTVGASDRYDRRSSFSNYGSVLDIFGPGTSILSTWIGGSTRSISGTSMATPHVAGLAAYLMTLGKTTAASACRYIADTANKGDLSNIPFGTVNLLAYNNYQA

SMILES | Percent helicity [1] [%] | Cleavage by pepsin (in words) (pepsin) | Cleavage by / resistance to proteinase K (in words) (proteinase K)
CC(=O)N[C@@H](CC(C)C)C(=O)N[C@H](C(=O)N[C@@H](Cc1ccccc1)C(=O)N[C@@]1(C)CCCC=CCCC[C@@](C)(C(=O)N[C@@H](CCC(N)=O)C(=O)N[C@@H](CC(C)C)C(=O)N[C@H](C(=O)N[C@@H](CO)C(N)=O)[C@@H](C)O)NC(=O)[C@H](Cc2c[nH]c3ccccc23)NC(=O)[C@H](Cc2ccc(O)cc2)NC(=O)[C@H](CCC(=O)O)NC1=O)[C@@H](C)O [Peptide 2a] (Ac-LTF[S5]EYW[S5]QLTS-NH2; staple 4-8) | ~60 |  | 
CC(=O)N[C@@H](CC(C)C)C(=O)N[C@H](C(=O)N[C@@H](Cc1ccccc1)C(=O)N[C@H]1CCCn2cc(nn2)-c2cccc(c2)-c2cn(nn2)CCC[C@@H](C(=O)N[C@@H](CO)C(N)=O)NC(=O)[C@H](CC(C)C)NC(=O)[C@H](CCC(N)=O)NC(=O)[C@H](C)NC(=O)[C@H](Cc2c[nH]c3ccccc23)NC(=O)[C@H](Cc2ccc(O)cc2)NC(=O)[C@H](CCC(=O)O)NC1=O)[C@@H](C)O [Peptide 4a] | 27 | completely cleaved | partially vulnerable to cleavage

Reference: publication PMC9257625 (RSC Chemical Biology, 2022)
